# Target: T1, human Sirt5 (Homo sapiens, UniProt Q9NXA8)
# T1 construct: Recombinant human Sirt5_37−310 was purchased readily in Tris Buffer; purchased Enzo Life Sciences (NY, USA)
# T1 sequence (Q9NXA8 37-310): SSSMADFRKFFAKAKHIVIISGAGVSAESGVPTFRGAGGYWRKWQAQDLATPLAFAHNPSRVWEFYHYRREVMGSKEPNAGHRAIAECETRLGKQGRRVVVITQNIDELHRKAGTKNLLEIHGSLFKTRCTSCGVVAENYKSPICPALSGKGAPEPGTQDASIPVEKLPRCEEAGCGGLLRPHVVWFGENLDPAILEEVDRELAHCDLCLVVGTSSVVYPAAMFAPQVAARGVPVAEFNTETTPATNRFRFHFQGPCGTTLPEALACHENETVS
# Assay: Homogeneous ZKsA-based fluorescence assay for Sirt5
# Assay type: biochemical
# Details: inhibition tested @ 10 μM
# Description: Recombinant human Sirt5_37−310 was purchased readily in Tris Buffer [25 mM Tris, 100 mM NaCl, 5 mM DTT, 10% glycerol (v/v)] from Enzo Life Sciences (NY, USA). Human Sirt3_118−395 was expressed and purified as described previously ([54]). For expression of human Sirt1_134−747 and Sirt2_56−356 chemically competent cells of E. coli BL21 Star (DE3) were transformed with the expression vectors pET30S-hSirt1_134−747 or pET30S-hSirt2_56−356. Bacteria were grown at 37°C in 2×YT medium supplemented with 50 μg·mL^−1 of kanamycin to an OD600 of 0.6. Then isopropyl-β-D-1-thiogalactopyranoside (IPTG) was added to a final concentration of 1 mM to induce gene expression. After further cultivation at 20°C for 12 h, the cells were harvested by centrifugation for 15 min at 5,000 g. The cells were resuspended in lysis buffer [100 mM Tris/HCl buffer at pH 8.0, 150 mM NaCl and 10% (v/v) glycerol] and disrupted by ultrasonication (Branson Digital Sonifier 250) at 70% amplitude for 10 min (3 s working, 10 s pause). The crude extract was cleared by centrifugation at 100,000 g for 1 h, and the supernatant was loaded onto a Strep-Tactin Superflow cartridge (5 ml bed volume, IBA Lifescience, Germany). Target proteins were eluted with lysis buffer containing 5 mM D-Desthiobiotin (IBA Lifescience, Germany) and further separated by size-exclusion chromatography (Superdex S200 26/60, GE Healthcare, IL, USA) equilibrated in Tris/HCl buffer (20 mM, 150 mM NaCl, pH 8.0). Pure protein was concentrated by ultrafiltration, flash-frozen in liquid nitrogen and stored at −80°C until further use. Identity as well as purity were verified by SDS-PAGE ([55]) and protein concentration was determined by the bicinchoninic acid (BCA) method, using bovine serum albumin (BSA) as a standard ([56]). Deacetylase activity was confirmed to be NAD^+-dependent and could be inhibited with the physiological sirtuin inhibitor nicotinamide.
# Inhibition of Sirt5 was measured using a general procedure described before with small modifications ([58]). Sirt5 was purchased from Enzo Life Science (NY, USA) and used as received. Z-Lys(succ)-aminomethyl coumarin (ZKsA) was used as a substrate for Sirt5 mediated desuccinylation. In black 384-well non-binding plates (Greiner Bio-One, Monroe, NC) Sirt5 was mixed with 2 μL of ZKsA (1 mM stock solution in assay buffer [(50 mM Tris·HCl, 137 mM NaCl, 2.7 mM KCl, 1 mM MgCl2, pH 8.0, and 0.1% PEG8000), 100 μM final assay concentration], 1 μL of Inhibitor dissolved in DMSO or DMSO as a control [final DMSO concentration 5% (v/v)], 2 μL NAD^+ (5 mM stock solution in assay buffer, final assay concentration 500 μM) and filled up to a total volume of 20 μL with assay buffer. The mixture was incubated for 1 h at 37°C and 140 rpm before 4 μL of trypsin solution (50 mM Tris, 100 mM NaCl, pH 8.0, 6 mg/mL trypsin buffer, 1 mg/mL final assay concentration) was added to stop the enzymatic reaction. After 2 min of incubation at 37°C and 140 rpm fluorescence intensity was detected as described above. Sirt5 concentration was adjusted to 15–30% substrate conversion. A negative control without enzyme and a positive control containing AMC instead of ZKsA were performed as well. Inhibition was calculated in % in relation to a DMSO control and was determined in triplicates.
row,Structure (SMILES),inhibition at 10 µM [%]
1,"N#CSc1cc(SC#N)c(N)nc1N [PR-619, reference compound]",28
2,CCCCNC(=O)Nc1cccc(SC#N)c1 [S1th 11],< 10
3,N#CSc1cccc(NC(=O)[C@H]2CC=CC[C@H]2C(=O)O)c1 [S1th 10],< 10

# Second part, the compound after the results:
row,inhibition at 10 µM [%],Structure (SMILES)
1,< 10,N#CSc1cccc(NS(=O)(=O)c2ccc3c(c2)OCCO3)c1 [S1th 13]
2,< 10,COc1ccc(SC#N)cc1OCC(=O)N(CCC#N)CCC#N [S1th 12]

# Reference: publication PMC7203344, “Sirtuin 1 Inhibiting Thiocyanates (S1th)—A New Class of Isotype Selective Inhibitors of NAD^+ Dependent Lysine Deacetylases” (Frontiers in Oncology, 2020)
